Measured values: US8859728B2, “Peptides that target dorsal root ganglion neurons” (Baylor College of Medicine, priority 2008, dated 2014)
Where no end group is shown, it is not given here.

How the values were obtained:
DRG neurons = assay: In vivo binding of GST-peptide-fusion proteins to DRG neurons after subarachnoid injection; set-up: species or system mouse; settings: L5 DRG; for NF-L-positive neurons positive for GST fusion protein: 5 μg into subarachnoid space, C57BL/6 mice, 1 h; for mean diameter of cells positive for GST fusion protein: in vivo, mean±SD
Description: To evaluate their binding to DRG cells in vivo, GST fusion proteins of three selected peptides were synthesized using the pGEX4T-1 vector kit (Amersham, Piscataway, N.J.) according to the manufacturer's instructions. Briefly, oligonucleotides for C-DRG1-C, C-DRG2-C, and C-DRG3-C were synthesized cloned into the pGEX4T-1 vector, and transformed in E. coli. The synthesized GST-fusion proteins were pull down by Glutathione Sepharose 4B (Amersham), and purified. The purities and reactions to anti-GST antibodies (Amersham) were confirmed by gel-electrophoresis stained by Coomassie Blue and anti-GST immunoblotting.
Under intraperitoneal pentobarbiturate anesthesia (0.1 mg/g BW), 10 μl (500 μg/ml) of purified GST-fusion proteins (GST-DRG1, GST-DRG2, GST-DRG3, or GST alone) were injected into the subarachnoid space of 8-week-old female C57BL/6 mice (n=3 each). After 1 h, the mice were sacrificed and transcardially perfused with cold saline followed by 4% paraformaldehyde, 0.5% glutaraldehyde and 0.3% picric acid in 0.1 M PBS (pH 7.4). The L5 DRGs were then isolated and cut sectioned (10 μm) for fluorescence immunohistochemistry. After blocking with 10% horse serum, the sections were incubated overnight at 4° C. with goat anti-GST antibody (Amersham) diluted 1:1000 and rabbit anti-neurofilament L (NF-L, non-phosphorylated form, Chemicon, Temecula, Calif.) antibody diluted 1:100 in PBST. The sections were incubated for 1 h with Alexa Fluor 488-labeled anti-goat IgG and Alexa Fluor 555-labeled anti-rabbit IgG (Molecular Probes, Eugene, Oreg.) at room temperature, mounted with VECTASHIELD mounting medium containing 4′,6-diamidino-2-phenylindole (DAPI) (Vector Laboratories Inc., Burlingame, Calif.), and observed under a fluorescence microscope (Axioplan 2 imaging and Axiocam, Carl Zeiss, Jena, Germany). For quantitative analysis, the inventors took pictures of randomly selected fields and measured diameters (long and short) of the cells positive for GST, NF-L and DAPI. The mean cell size was calculated as the mean of the long and short diameters, and cell-size differences were evaluated in the three different groups.

isolated DRG neurons = assay: Double staining of isolated DRG neurons after incubation with DRG-p1 and GST-DRG3; assay type: cell-based, mouse; settings: antibodies against phage and GST
Description: The Ph.D.-C7C Phage display Peptide Library kit expresses random 7-amino acid peptides fused to the minor coat protein (pIII) of the M13 phage. By sequence analysis, only 113 phage plaques were represented in the bound peptide, consistent with a very efficient selection process (Table 2). The final binding studies allowed identification of three phages (DRG1, DRG2, or DRG3) that occurred repeatedly. In specific embodiments of the invention, the efficient identification of these clones was the result of multiple rounds of positive and negative selection using the biopanning protocol (Liang et al., 2006), although in specific cases some of the other 84 clones (Table 2) are true DRG-binding peptide-phages. […] Moreover, the size specificity of target neurons for individual peptides was confirmed by in vivo binding experiments: GST-DRG1 and GST-DRG3 recognized small-sized neurons, and GST-DRG2 recognized large-sized neurons. Since both DRG1 and DRG3 recognized small sized neurons, two peptide ligands might bind to the same cell populations. Therefore, double staining was performed of isolated DRG neurons after the incubation with DRG-p1 and GST-DRG3 by antibodies against phage and GST, respectively. Double positive staining was obtained in 51% of DRG-p1-positive neurons, and was in 71% of GST-DRG3-positive neurons, respectively. […]

Which “NF-L-positive neurons positive for GST fusion protein” value (shortened to “NF-L-positive neurons positive”) (DRG neurons) does the source give for “GST-DRG1: GST fusion protein of peptide C-DRG1-C made with pGEX4T-1 in E. coli (CSPGARAFC; cysteine pairing not given here; also: GST fusion protein, GST not in chain)” here?
The value was 39%.

What about the “mean diameter of cells positive for GST fusion protein” value (from here on “mean diameter of cells positive”) (DRG neurons) of the same substance?
The value was 21.6±5.2 μm.

Which “NF-L-positive neurons positive” value (DRG neurons) does the source give for “GST-DRG2: GST fusion protein of peptide C-DRG2-C made with pGEX4T-1 in E. coli (CDGPWRKMC; cysteine pairing not given here; also: GST fusion protein, GST not in chain)” here?
Its value is 25%.

And the “mean diameter of cells positive” value (DRG neurons)?
Its value is 33.5±7.4 μm.

With “GST-DRG3: GST fusion protein of peptide C-DRG3-C made with pGEX4T-1 in E. coli (CFGQKASSC; cysteine pairing not given here; also: GST fusion protein, GST not in chain)” as the substance, how does the “NF-L-positive neurons positive” value (DRG neurons) read?
Its value is 14%.

What about the “mean diameter of cells positive” value (DRG neurons) of the same substance?
Its value is 22.7±6.6 μm.

And the “double positive staining (DRG-p1 and GST-DRG3) as share of neurons positive for the named ligand” value (isolated DRG neurons)?
The value was 71%.
